Experimental data taken from patent US20210038607A1, “OXADIAZOLYLTHIOPHENE DERIVATIVES USEFUL AS HISTONE DEACETYLASE INHIBITORS” (Karus Therapeutics Limited, priority 2018, published 2021).

Columns and labels:
Recombinant human HDAC6 = target: T1, Recombinant human HDAC6 (Homo sapiens, UniProt Q9UBN7); assay: HDAC6 biochemical assay, AMC-labeled peptide substrate; conditions: HDAC6; read-out: HDAC Isoform IC50 (nM) 6
T1 construct: full length, MW=159 kDa; GST (N); host or cells: Sf9 insect cells (baculovirus)
T1 sequence (Q9UBN7 1-1215): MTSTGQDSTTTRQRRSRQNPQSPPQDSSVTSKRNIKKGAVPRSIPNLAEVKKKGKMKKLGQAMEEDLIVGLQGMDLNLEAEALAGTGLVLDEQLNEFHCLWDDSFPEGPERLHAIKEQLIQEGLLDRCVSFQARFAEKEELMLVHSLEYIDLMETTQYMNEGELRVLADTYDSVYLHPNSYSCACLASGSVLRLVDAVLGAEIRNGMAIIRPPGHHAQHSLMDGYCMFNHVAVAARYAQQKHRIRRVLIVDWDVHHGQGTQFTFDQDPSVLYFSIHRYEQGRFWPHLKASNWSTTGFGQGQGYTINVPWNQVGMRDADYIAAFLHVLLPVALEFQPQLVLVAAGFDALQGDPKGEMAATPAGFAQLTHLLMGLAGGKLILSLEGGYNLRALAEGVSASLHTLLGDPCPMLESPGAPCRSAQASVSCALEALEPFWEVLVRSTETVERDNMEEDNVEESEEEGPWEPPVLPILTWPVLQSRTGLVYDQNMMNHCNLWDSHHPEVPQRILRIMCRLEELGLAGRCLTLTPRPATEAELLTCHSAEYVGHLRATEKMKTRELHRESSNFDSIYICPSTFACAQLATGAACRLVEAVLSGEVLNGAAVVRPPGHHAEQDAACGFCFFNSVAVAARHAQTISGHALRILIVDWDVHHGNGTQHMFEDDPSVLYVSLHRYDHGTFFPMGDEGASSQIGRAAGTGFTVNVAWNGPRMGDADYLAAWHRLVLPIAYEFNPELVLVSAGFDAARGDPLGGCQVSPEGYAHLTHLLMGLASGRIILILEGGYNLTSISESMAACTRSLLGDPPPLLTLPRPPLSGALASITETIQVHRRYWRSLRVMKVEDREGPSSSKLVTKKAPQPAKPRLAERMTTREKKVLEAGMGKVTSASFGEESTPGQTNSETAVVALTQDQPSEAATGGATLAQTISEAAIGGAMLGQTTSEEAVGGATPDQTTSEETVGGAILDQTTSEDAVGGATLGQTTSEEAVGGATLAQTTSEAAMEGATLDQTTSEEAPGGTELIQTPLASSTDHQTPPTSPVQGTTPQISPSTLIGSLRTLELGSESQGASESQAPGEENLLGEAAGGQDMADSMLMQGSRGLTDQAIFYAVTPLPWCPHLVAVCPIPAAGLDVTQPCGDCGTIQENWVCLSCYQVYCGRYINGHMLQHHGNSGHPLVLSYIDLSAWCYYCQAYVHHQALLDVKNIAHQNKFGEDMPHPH
Outline: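 Two-step fluorogenic read-out: enzyme deacetylates 50 μM RHKK(Ac)AMC for 1 h at 30° C in pH 8.0 Tris buffer with BSA and 1% DMSO, then developer cleavage gives signal at Ex 360/Em 460. Enzyme: 0.3 ng/ul recombinant full-length human HDAC6, GST-tagged, Sf9-expressed.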

Human HDAC5 = target: T2, Human HDAC5 (Homo sapiens, UniProt Q9UQL6); assay: HDAC5 biochemical assay, class IIa-specific substrate; conditions: read-out: HDAC Isoform IC50 (nM) 5
T2 construct: full length with C-terminal His tag, MW=51.1 kDa; His (C); host or cells: baculovirus expression system
Outline: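 Two-step fluorogenic read-out: deacetylated trifluoroacetyl-lysine AMC substrate (50 μM) digested by developer, measured at Ex/Em 360/460. Deacetylation step: 0.05 ng/ul His-tagged full-length baculoviral enzyme with compound, 30 min, room temperature, pH 8.0 Tris with 1 mg/mL BSA and 1% DMSO.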

Human HDAC7 = target: T3, Human HDAC7 (Homo sapiens, UniProt Q8WUI4); assay: HDAC7 biochemical assay, class IIa-specific substrate; conditions: read-out: HDAC Isoform IC50 (nM) 7
T3 construct: (a.a. 518-end) with N-terminal GST tag; GST (N); host or cells: baculovirus expression system
T3 sequence (Q8WUI4 518-952 limits assumed): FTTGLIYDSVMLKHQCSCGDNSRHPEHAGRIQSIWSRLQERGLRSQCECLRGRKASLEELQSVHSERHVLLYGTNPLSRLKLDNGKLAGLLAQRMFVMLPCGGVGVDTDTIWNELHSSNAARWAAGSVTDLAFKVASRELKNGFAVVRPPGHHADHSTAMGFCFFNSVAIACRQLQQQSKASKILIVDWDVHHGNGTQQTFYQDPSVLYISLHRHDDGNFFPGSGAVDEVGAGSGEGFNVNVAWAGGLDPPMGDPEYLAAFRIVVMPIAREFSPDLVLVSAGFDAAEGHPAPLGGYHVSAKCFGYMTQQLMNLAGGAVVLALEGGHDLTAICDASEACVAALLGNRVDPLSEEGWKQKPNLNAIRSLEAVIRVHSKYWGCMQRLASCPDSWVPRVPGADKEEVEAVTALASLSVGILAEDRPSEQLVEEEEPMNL
Outline: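 Two-step fluorogenic readout: class IIa-selective trifluoroacetyl-lysine AMC substrate (50 μM) deacetylated by N-terminal GST-HDAC7 fragment (0.001 ng/ul), then digested by developer, Ex/Em 360/460. Reaction: 30 min, room temperature, Tris-HCl pH 8.0, NaCl/KCl/MgCl2, 1 mg/mL BSA, 1% DMSO.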

Human HDAC4 = target: T4, Human HDAC4 (Homo sapiens, UniProt P56524); assay: HDAC4 biochemical assay, class IIa-specific substrate; conditions: read-out: HDAC Isoform IC50 (nM) 4
T4 construct: amino acids 627-1085 with N-terminal GST tag; GST (N); host or cells: baculovirus expression system
Outline: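 Two-step fluorogenic read-out: deacetylated BOC-Lys(trifluoroacetyl)-AMC (50 μM) was digested by developer and measured at Ex/Em 360/460. Deacetylation by 0.004 ng/ul HDAC4 (aa 627-1085, N-terminal GST) ran 30 min at room temperature, pH 8.0 Tris buffer, 1 mg/mL BSA, 1% DMSO.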

Human HDAC9 = target: T5, Human HDAC9 (Homo sapiens, UniProt Q9UKV0); assay: HDAC9 biochemical assay, class IIa-specific substrate; conditions: read-out: HDAC Isoform IC50 (nM) 9
T5 construct: amino acids 604-1066 with C-terminal His tag; His (C); host or cells: baculovirus expression system
Outline: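 HDAC9 residues 604-1066 (C-terminal His tag, baculovirus-expressed) at 0.06 ng/ul with 50 μM class IIa substrate Boc-Lys(trifluoroacetyl)-AMC in Tris-HCl pH 8.0 buffer with BSA and 1% DMSO. 30 min at room temperature, then developer added; fluorescence read at 360/460 nm Ex/Em.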

Human HDAC1 = target: T6, Human HDAC1 (Homo sapiens, UniProt Q13547); assay: HDAC1 biochemical assay, AMC-labeled peptide substrate; conditions: read-out: HDAC Isoform IC50 (nM) 1
T6 construct: full length with C-terminal His-tag and C-terminal FLAG-tag; His (C); FLAG (C); host or cells: baculovirus expression system
Outline: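 Two-step fluorogenic read: HDAC1 deacetylates 50 μM acetyl-lysine AMC peptide RHKK(Ac)AMC for 1 h at 30° C (pH 8.0, 1% DMSO, with compound), then developer digests the product for fluorescence at Ex/Em 360/460. Enzyme is full-length human, His/FLAG-tagged, insect-cell expressed, at 0.3 ng/ul.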

T5 sequence (Q9UKV0 604-1066 isoform Q9UKV0-5): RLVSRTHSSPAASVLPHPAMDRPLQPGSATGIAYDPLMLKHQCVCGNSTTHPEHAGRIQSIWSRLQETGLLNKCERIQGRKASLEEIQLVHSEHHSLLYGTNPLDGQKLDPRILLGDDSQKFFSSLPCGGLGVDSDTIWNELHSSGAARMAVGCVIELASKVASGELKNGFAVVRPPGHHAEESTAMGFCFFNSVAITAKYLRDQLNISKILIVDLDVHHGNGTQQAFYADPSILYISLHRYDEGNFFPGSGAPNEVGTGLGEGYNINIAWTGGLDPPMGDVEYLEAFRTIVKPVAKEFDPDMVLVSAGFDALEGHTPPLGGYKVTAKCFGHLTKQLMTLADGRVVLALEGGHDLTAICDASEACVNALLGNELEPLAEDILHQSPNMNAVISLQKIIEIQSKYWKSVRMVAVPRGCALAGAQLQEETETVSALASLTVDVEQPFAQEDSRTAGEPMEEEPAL
T2 sequence (Q9UQL6 656-1122 limits assumed): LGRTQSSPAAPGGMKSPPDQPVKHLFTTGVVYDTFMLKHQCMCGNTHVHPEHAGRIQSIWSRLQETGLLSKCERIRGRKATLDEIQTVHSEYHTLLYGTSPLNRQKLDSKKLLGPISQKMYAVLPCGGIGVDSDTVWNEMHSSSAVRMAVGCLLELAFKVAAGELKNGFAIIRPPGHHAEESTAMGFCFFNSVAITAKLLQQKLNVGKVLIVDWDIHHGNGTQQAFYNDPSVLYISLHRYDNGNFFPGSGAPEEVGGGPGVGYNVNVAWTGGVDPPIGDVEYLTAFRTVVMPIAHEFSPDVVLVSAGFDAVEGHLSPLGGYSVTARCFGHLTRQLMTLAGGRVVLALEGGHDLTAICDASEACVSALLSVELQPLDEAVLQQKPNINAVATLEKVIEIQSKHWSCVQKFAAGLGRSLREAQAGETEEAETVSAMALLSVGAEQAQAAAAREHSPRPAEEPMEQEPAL
T6 sequence (Q13547 whole entry, canonical isoform): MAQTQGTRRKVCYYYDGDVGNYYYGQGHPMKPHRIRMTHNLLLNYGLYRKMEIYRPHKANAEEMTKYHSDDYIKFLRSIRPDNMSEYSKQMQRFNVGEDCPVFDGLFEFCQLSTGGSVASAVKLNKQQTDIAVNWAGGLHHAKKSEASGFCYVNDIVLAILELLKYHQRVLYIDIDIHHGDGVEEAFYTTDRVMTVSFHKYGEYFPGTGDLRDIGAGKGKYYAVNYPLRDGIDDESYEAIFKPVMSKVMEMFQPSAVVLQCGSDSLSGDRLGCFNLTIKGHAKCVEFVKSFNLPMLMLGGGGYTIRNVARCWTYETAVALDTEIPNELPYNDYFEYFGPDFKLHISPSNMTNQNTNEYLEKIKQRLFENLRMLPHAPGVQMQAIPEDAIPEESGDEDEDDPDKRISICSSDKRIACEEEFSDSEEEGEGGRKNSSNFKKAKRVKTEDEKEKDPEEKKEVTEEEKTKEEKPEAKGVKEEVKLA
T4 sequence (P56524 627-1084 limits assumed): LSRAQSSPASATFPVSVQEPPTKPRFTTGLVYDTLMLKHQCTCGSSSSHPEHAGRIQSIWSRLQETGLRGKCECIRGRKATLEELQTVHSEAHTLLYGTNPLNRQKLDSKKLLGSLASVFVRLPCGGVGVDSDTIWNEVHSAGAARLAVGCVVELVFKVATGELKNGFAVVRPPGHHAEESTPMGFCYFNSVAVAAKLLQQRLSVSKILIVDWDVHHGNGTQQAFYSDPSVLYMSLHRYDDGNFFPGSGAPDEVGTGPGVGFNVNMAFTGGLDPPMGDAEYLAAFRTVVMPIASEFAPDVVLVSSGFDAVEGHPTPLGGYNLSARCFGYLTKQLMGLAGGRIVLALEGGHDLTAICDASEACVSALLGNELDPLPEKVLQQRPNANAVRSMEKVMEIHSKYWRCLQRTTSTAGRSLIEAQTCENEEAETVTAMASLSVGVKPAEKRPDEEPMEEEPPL

Row | IC50 (Recombinant human HDAC6) | IC50 (Human HDAC5) | IC50 (Human HDAC7) | IC50 (Human HDAC4) | IC50 (Human HDAC9) | IC50 (Human HDAC1) | Structure (SMILES)
1 | ≤ 10000 nM | ≤ 10000 nM | ≤ 10000 nM | ≤ 10000 nM | ≤ 10000 nM | > 10000 nM | FC(F)(F)c1nc(-c2ccc(CN(c3cnccn3)c3nccc4ncccc34)s2)no1 [Example AJ, N-(Pyrazin-2-yl)-N-({5-[5-(trifluoromethyl)-1,2,4-oxadiazol-3-yl]thiophen-2-yl}methyl)-1,6-naphthyridin-5-amine]
2 | ≤ 10000 nM | ≤ 500 nM | ≤ 500 nM | ≤ 500 nM | ≤ 1000 nM | > 10000 nM | COc1ncc(N(Cc2ccc(-c3noc(C(F)(F)F)n3)s2)c2cnccn2)cn1 [Example CT, 2-Methoxy-N-(pyrazin-2-yl)-N-({5-[5-(trifluoromethyl)-1,2,4-oxadiazol-3-yl]thiophen-2-yl}methyl)pyrimidin-5-amine]
3 | ≤ 10000 nM | ≤ 10000 nM | ≤ 10000 nM | > 10000 nM | ≤ 10000 nM | > 10000 nM | Cc1cncc(N(Cc2ccc(-c3noc(C(F)(F)F)n3)s2)c2cncc(C)n2)n1 [Example BX, 6-Methyl-N-(6-methylpyrazin-2-yl)-N-({5-[5-(trifluoromethyl)-1,2,4-oxadiazol-3-yl]thiophen-2-yl}methyl)pyrazin-2-amine]
4 | ≤ 10000 nM | ≤ 10000 nM | ≤ 10000 nM | ≤ 10000 nM | ≤ 10000 nM | > 10000 nM | Cc1cnc(N(Cc2ccc(-c3noc(C(F)(F)F)n3)s2)c2cnccn2)nc1 [Example AW, 5-Methyl-N-(pyrazin-2-yl)-N-({5-[5-(trifluoromethyl)-1,2,4-oxadiazol-3-yl]thiophen-2-yl}methyl)pyrimidin-2-amine]
5 | ≤ 10000 nM | ≤ 1000 nM | ≤ 1000 nM | ≤ 1000 nM | ≤ 1000 nM | > 10000 nM | Cc1nccc(N(Cc2ccc(-c3noc(C(F)(F)F)n3)s2)c2cnccn2)n1 [Example CA, 2-Methyl-N-(pyrazin-2-yl)-N-({5-[5-(trifluoromethyl)-1,2,4-oxadiazol-3-yl]thiophen-2-yl}methyl)pyrimidin-4-amine]
6 | ≤ 10000 nM | ≤ 10000 nM | > 10000 nM | ≤ 10000 nM | > 10000 nM | > 10000 nM | FC(F)(F)c1cnnc(N(Cc2ccc(-c3noc(C(F)(F)F)n3)s2)c2ccccn2)c1 [Example EG, N-(Pyridin-2-yl)-5-(trifluoromethyl)-N-({5-[5-(trifluoromethyl)-1,2,4-oxadiazol-3-yl]thiophen-2-yl}methyl)pyridazin-3-amine]
7 | ≤ 1000 nM | ≤ 10000 nM | ≤ 10000 nM | ≤ 10000 nM | ≤ 10000 nM | > 10000 nM | O=C(O)c1ccc(N(Cc2ccc(-c3noc(C(F)(F)F)n3)s2)c2cnccn2)nn1 [Example DP, 6-[(Pyrazin-2-yl)({5-[5-(trifluoromethyl)-1,2,4-oxadiazol-3-yl]thiophen-2-yl}methyl)amino]pyridazine-3-carboxylic acid]
8 | ≤ 1000 nM | ≤ 1000 nM | ≤ 1000 nM | ≤ 500 nM | ≤ 10000 nM | > 10000 nM | COc1nccc(N(Cc2ccc(-c3noc(C(F)(F)F)n3)s2)c2cnccn2)n1 [Example CB, 2-Methoxy-N-(pyrazin-2-yl)-N-({5-[5-(trifluoromethyl)-1,2,4-oxadiazol-3-yl]thiophen-2-yl}methyl)pyrimidin-4-amine]
